Measured values taken from US20250115597A1, “TYK2 INHIBITORS AND COMPOSITIONS AND METHODS THEREOF” (LYNK PHARMACEUTICALS CO. LTD., priority 2021, published 2025).
Read-outs that look alike come from different tables or passages of the source.

Experiments:
[1] = target: T1, Ba/F3-FL-TYK2-P760L cells (Homo sapiens, UniProt P29597, P760L, cells depend on it); experiment: Anti-proliferative assay, Ba/F3-FL-TYK2-P760L cells (Cell-Titer Glo); assay type: cell-based; conditions: 72 h, read-out: BaF3-FL-T2P760L IC50
T1 construct: BaF3-FL-T2P760L (nM)
In short: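 Compound exposure ran 72 h at 37 °C in 5% CO2 across nine 3-fold concentrations from a 20 μM top dose, added 24 h after seeding 2000 cells/well.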

[2] = Microsomal metabolic stability assay; assay type: in vitro ADME; conditions: pH 7.4, 0.5 mg/mL protein, 1 μM compound
Experimental: Microsomal Metabolic Stability Assay
Microsomes were pre-incubated with test compound or control compounds for 5 min at 37° C. in 100 mM potassium phosphate buffer, pH 7.4, 1.0 mM EDTA. The reaction was initiated by addition of 15 μL of the NADPH regenerating system to 30 μL of each incubation mixture per time point. The final incubation condition was composed of 0.5 mg/mL microsomal protein, 1 μM test article/positive control, 2 mM NADPH. The 0-minute samples were prepared by addition of a 30 μL aliquot of each incubation mixture to 135 μL quench reagent to precipitate proteins. And then a 15 μL aliquot of the NADPH regenerating system was added. At 5, 15, 30 and 45 minutes, the reaction will be stopped by the addition of cold acetonitrile solution containing internal standard. The samples taken at all time points were centrifuged at 5000×g for 15 minutes. 50 μL of supernatant are taken into 96-well assay plates pre-added with 50 μL ultrapure water, and then analyzed by LC/MS/MS.
Concentrations of test articles, control compounds in the samples were determined by using LC/MS/MS method. Plotting of the chromatograms and peak area integrations are carried out by Analyst (AB Sciex).
n the determination of the in vitro elimination constant (ke) of the control compounds, the analyte/internal standard peak area ratios will be converted to percentage remaining (% Remaining) with the following equation: […]
The slope was measured by the natural logarithm of the percentage of the residual compound and time, T1/2 was calculated according to the following formula.

[3] = human liver microsomes, read-out: Human LM Clint
[4] = human liver microsomes, read-out: Human LM T½
[5] = dog liver microsomes, read-out: Dog LM Clint
[6] = dog liver microsomes, read-out: Dog LM T½
[7] = rat liver microsomes, read-out: Rat LM Clint
[8] = rat liver microsomes, read-out: Rat LM T½

T1 sequence (P29597 whole entry P760L): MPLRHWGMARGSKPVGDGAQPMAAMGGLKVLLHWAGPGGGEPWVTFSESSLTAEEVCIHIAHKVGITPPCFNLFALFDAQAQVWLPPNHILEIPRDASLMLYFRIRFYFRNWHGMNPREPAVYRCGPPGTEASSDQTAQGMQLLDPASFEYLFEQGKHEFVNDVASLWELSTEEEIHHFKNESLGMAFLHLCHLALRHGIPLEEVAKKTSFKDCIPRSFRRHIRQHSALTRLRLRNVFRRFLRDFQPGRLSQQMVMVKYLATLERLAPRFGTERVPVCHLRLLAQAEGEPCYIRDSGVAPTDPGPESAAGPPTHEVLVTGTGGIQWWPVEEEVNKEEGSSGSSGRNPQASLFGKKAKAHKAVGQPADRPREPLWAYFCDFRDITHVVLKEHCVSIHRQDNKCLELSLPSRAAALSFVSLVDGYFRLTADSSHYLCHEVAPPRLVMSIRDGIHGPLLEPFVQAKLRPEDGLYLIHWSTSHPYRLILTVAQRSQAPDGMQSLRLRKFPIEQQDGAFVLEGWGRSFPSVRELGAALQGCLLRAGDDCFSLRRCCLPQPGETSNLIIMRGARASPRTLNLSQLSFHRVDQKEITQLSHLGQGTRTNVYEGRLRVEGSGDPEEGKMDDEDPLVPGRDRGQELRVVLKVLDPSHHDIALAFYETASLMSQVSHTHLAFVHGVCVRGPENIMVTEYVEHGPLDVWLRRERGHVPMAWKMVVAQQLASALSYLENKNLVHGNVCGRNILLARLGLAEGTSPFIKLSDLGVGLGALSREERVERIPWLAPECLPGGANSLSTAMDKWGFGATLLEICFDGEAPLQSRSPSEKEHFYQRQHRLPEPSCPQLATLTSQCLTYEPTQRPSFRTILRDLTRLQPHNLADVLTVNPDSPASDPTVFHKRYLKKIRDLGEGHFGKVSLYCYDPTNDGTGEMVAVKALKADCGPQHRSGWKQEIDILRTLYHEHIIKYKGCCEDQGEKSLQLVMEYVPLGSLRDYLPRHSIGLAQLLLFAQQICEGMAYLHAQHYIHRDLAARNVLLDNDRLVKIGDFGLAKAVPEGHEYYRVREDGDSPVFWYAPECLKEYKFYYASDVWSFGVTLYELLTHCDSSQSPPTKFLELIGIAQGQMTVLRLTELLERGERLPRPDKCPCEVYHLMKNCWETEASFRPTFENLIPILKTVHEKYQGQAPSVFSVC

SMILES | GI50 [1] [µM] | microsomal CLint at 1 μM [2, 3] [µL/min/mg] | half-life at 1 μM [2, 4] [h] | microsomal CLint at 1 μM [2, 5] [µL/min/mg] | half-life at 1 μM [2, 6] [h] | microsomal CLint at 1 μM [2, 7] [µL/min/mg] | half-life at 1 μM [2, 8] [h]
[2H]C([2H])([2H])NC(=O)c1cnc(NC(=O)C2CC2)cc1Nc1cn(C)c2cnn(C(C)C(F)(F)F)c(=O)c12 (stereo not drawn) [Example 200, 6-(Cyclopropanecarboxamido)-N-(methyl-d3)-4-((1-methyl-4-oxo-5-(1,1,1-trifluoropropan-2-yl)-4,5-dihydro-1H-pyrrolo[2,3-d]pyridazin-3-yl)amino)nicotinamide] | 0.648 | < 11.5 | > 2 |  |  |  | 
[2H]C([2H])([2H])NC(=O)c1cnc2cc1Nc1cc(cc(-c3ncc(OC)cn3)c1OC)COCc1nc(ccc1F)N2 [Example 95, 18-Fluoro-10-methoxy-11-(5-methoxypyrimidin-2-yl)-N-(methyl-d3)-15-oxa-2,4,8,21-tetraazatetracyclo[15.3.1.1^{3,7}.1^{9,13}]tricosa-1(20),3,5,7(23),9(22),10,12,17(21),18-nonaene-6-carboxamide] | 0.0531 | < 11.5 | > 2 | < 11.5 | > 2 | < 11.5 | > 2
[2H]C([2H])([2H])NC(=O)c1cnc(NC(=O)C2CC2)cc1Nc1csc2cnn(CC3CC3(F)F)c(=O)c12 (stereo not drawn) [Example 191, 6-(Cyclopropanecarboxamido)-4-((5-((2,2-difluorocyclopropyl)methyl)-4-oxo-4,5-dihydrothieno[2,3-d]pyridazin-3-yl)amino)-N-(methyl-d3)nicotinamide] | 1.27 | < 11.5 | > 2 | < 11.5 | > 2 | 13.1 | 1.77
[2H]C([2H])([2H])NC(=O)c1cnc(NC(=O)C2CC2)cc1Nc1csc2c(Cl)cn(C([2H])([2H])[2H])c(=O)c12 [Example 174, 4-((7-Chloro-5-(methyl-d3)-4-oxo-4,5-dihydrothieno[3,2-c]pyridin-3-yl)amino)-6-(cyclopropanecarboxamido)-N-(methyl-d3)nicotinamide] | 0.147 | 18.2 | 1.27 | < 11.5 | > 2 | 25.9 | 0.892
[2H]C([2H])([2H])NC(=O)c1cnc(NC(=O)C2CC2)cc1Nc1csc2cnn(C(C)C)c(=O)c12 [Example 184, 6-(Cyclopropanecarboxamido)-4-((5-isopropyl-4-oxo-4,5-dihydrothieno[2,3-d]pyridazin-3-yl)amino)-N-(methyl-d3)nicotinamide] | 0.189 | < 11.5 | > 2 | < 11.5 | > 2 | 23.1 | 1
CNC(=O)c1cnc(NC(=O)C2CC2)cc1Nc1csc2ccn(C)c(=O)c12 [Example 16, 6-(Cyclopropanecarboxamido)-N-methyl-4-((5-methyl-4-oxo-4,5-dihydrothieno[3,2-c]pyridin-3-yl)amino)nicotinamide] | 0.0893 | 27.8 | 0.832 | 8.46 | 2.73 | 126 | 0.184
[2H]C([2H])([2H])NC(=O)c1nnc2cc1Nc1cc(cc(-n3cnc(C)n3)c1OC)COCc1nc(ccc1F)N2 [Example 75, 18-Fluoro-10-methoxy-N-(methyl-d3)-11-(3-methyl-1H-1,2,4-triazol-1-yl)-15-oxa-2,4,5,8,21-pentaazatetracyclo[15.3.1.1^{3,7}.1^{9,13}]tricosa-1(20),3,5,7(23),9(22),10,12,17(21),18-nonaene-6-carboxamide] | 0.108 | 21.8 | 1.06 | 37.7 | 0.613 | 22.6 | 1.02
[2H]C([2H])([2H])NC(=O)c1cnc(NC(=O)C2CC2)cc1Nc1cnn2ccn(CC(F)(F)F)c(=O)c12 [Example 45, 6-(Cyclopropanecarboxamido)-N-(methyl-d3)-4-((4-oxo-5-(2,2,2-trifluoroethyl)-4,5-dihydropyrazolo[1,5-a]pyrazin-3-yl)amino)nicotinamide] | 0.16 | 51.9 | 0.445 | 8.76 | 2.64 | 110 | 0.21
COC(=O)c1cnc(NC(=O)C2CC2)cc1Nc1ncn2ccn(CC(F)(F)F)c(=O)c12 [Example 47, Methyl 6-(cyclopropanecarboxamido)-4-((8-oxo-7-(2,2,2-trifluoroethyl)-7,8-dihydroimidazo[1,5-a]pyrazin-1-yl)amino)nicotinate] | 0.18 | 45.2 | 0.512 | 25 | 0.923 | 80 | 0.288
[2H]C([2H])([2H])NC(=O)c1cnc2nc1Nc1cc(cc(-c3ncn(C)n3)c1OC)COCc1cc(ccc1F)N2 [Example 76, 18-Fluoro-10-methoxy-N-(methyl-d3)-11-(1-methyl-1H-1,2,4-triazol-3-yl)-15-oxa-2,4,8,23-tetraazatetracyclo[15.3.1.1^{3,7}.1^{9,13}]tricosa-1(20),3,5,7(23),9(22),10,12,17(21),18-nonaene-6-carboxamide] | 0.0587 | 20.5 | 1.12 | 12.3 | 1.88 | 19.6 | 1.18
[2H]C([2H])([2H])NC(=O)c1cnc(Nc2ccc(F)cn2)cc1Nc1ccc2cnn(C([2H])([2H])[2H])c2c1OC [Example 141, 6-((5-Fluoropyridin-2-yl)amino)-4-((7-methoxy-1-(methyl-d3)-1H-indazol-6-yl)amino)-N-(methyl-d3)nicotinamide] | 0.0291 | 76 | 0.304 | 93.8 | 0.246 | 46.8 | 0.494
[2H]C([2H])([2H])NC(=O)c1cnc(Nc2ccc(F)cn2)cc1Nc1ccc2cnn(CC)c2c1OC [Example 42, 4-((1-Ethyl-7-methoxy-1H-indazol-6-yl)amino)-6-((5-fluoropyridin-2-yl)amino)-N-(methyl-d3)nicotinamide] | 0.0388 | 11.9 | 1.95 | 117 | 0.198 | 43.9 | 0.526
[2H]C([2H])([2H])NC(=O)c1cnc2cc1Nc1cc(cc(-c3ncn(C)n3)c1OC)COCc1nc(ccc1C)N2 [Example 70, 10-Methoxy-N-(methyl-d3)-18-methyl-11-(1-methyl-1H-1,2,4-triazol-3-yl)-15-oxa-2,4,8,21-tetraazatetracyclo[15.3.1.1^{3,7}.1^{9,13}]tricosa-1(20),3,5,7(23),9(22),10,12,17(21),18-nonaene-6-carboxamide] | 0.03 | 12.7 | 1.83 | 30.4 | 0.759 | 7.43 | 3.11
